From article PMC8217266 (Clinical Pharmacology and Therapeutics, 2021)

Key:
BCRP = target: T1, BCRP (Homo sapiens, UniProt Q9UNQ0); assay: biochemical
T1 sequence (Q9UNQ0 1-655): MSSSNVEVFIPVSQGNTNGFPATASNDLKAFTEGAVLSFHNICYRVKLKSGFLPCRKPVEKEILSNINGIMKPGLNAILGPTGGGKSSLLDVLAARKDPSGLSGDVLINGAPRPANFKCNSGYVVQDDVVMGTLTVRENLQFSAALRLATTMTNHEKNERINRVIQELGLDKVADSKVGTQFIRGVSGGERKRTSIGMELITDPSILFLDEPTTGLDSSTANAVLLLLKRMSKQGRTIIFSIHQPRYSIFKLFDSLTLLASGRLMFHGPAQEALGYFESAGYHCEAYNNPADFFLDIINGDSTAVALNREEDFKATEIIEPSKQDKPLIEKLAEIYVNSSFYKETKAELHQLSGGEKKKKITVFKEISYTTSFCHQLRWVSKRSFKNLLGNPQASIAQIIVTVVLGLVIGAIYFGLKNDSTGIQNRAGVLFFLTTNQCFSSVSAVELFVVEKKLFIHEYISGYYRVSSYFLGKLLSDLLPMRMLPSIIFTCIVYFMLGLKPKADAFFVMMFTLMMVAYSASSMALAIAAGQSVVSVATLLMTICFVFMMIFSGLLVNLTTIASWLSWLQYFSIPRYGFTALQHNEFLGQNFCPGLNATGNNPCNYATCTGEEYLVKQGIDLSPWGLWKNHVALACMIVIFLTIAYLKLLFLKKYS

human OAT3 [1] = target: T2, human OAT3 (Homo sapiens, UniProt Q8TCC7); assay: cell-based
T2 sequence (Q8TCC7 1-542): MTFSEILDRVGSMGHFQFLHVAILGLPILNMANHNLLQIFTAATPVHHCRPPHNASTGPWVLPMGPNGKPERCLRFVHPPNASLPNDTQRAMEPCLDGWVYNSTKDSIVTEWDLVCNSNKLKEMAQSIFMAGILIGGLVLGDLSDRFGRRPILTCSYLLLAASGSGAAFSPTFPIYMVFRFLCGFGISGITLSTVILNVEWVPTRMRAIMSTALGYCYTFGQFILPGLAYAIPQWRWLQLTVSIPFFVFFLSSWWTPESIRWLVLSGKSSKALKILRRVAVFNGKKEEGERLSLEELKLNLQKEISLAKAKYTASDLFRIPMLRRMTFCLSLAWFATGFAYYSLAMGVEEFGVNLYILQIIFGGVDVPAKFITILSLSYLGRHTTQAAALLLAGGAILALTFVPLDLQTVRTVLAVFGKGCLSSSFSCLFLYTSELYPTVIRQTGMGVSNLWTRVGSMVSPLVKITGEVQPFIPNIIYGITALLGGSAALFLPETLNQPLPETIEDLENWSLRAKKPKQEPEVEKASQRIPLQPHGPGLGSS

human MATE1 = target: T3, human MATE1 (Homo sapiens, UniProt Q96FL8); assay: cell-based
T3 sequence (Q96FL8 1-570): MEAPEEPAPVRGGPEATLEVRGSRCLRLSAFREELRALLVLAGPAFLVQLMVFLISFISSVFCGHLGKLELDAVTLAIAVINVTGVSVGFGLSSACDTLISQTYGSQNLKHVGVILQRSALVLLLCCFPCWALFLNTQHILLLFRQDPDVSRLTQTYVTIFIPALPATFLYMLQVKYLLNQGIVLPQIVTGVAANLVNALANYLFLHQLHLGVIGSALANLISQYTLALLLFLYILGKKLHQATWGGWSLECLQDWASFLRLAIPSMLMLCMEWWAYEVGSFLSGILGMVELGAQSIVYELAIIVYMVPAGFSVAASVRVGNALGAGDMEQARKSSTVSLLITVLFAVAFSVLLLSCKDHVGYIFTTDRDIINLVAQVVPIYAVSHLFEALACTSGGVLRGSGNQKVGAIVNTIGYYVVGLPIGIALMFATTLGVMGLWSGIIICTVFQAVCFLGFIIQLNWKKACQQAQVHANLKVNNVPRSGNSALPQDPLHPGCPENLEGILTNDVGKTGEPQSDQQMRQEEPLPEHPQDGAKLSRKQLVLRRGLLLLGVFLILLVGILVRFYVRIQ

human MATE2 = human MATE2 (Homo sapiens, UniProt Q86VL8); assay: cell-based
human OAT1 = target: T4, human OAT1 (Homo sapiens, UniProt Q4U2R8); assay: cell-based
T4 sequence (Q4U2R8 1-563): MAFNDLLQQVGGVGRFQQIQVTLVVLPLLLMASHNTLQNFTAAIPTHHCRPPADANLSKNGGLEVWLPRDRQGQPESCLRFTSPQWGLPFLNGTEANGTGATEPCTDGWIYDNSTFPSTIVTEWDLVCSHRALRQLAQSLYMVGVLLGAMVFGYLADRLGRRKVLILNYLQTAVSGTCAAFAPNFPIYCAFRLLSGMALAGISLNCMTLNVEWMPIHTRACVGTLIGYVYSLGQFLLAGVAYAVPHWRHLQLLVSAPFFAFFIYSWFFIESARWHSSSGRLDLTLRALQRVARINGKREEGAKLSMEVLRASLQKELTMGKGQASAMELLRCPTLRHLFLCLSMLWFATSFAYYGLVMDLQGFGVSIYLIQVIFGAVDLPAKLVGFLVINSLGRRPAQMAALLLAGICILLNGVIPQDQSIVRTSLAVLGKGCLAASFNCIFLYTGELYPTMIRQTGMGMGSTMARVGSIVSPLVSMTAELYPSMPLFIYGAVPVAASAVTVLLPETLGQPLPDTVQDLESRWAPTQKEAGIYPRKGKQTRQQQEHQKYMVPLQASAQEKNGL

human OAT3 [2] = target: T2, human OAT3; conditions: for Cu,max/IC50 OAT3: human

Chain of human MATE2 (Q86VL8 1-566 isoform Q86VL8-3): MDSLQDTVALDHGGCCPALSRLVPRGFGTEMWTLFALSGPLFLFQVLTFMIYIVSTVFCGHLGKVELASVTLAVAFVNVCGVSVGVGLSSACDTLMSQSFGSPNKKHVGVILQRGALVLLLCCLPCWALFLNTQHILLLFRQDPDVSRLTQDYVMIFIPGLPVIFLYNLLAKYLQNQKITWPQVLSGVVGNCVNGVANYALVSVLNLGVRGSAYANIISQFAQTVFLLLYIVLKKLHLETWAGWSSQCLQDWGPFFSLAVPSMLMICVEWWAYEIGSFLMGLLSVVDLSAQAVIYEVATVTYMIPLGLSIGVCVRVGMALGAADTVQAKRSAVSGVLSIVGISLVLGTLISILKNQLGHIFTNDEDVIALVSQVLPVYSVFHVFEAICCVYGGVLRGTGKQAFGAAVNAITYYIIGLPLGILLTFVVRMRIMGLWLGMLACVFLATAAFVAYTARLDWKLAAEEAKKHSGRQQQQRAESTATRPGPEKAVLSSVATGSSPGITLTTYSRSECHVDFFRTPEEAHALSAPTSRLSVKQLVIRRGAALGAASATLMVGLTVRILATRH

SMILES | IC50 (BCRP) | IC50 (human OAT3 [1]) | IC50 (human MATE1) | IC50 (human MATE2) | IC50 (human OAT1) | OAT3 inhibited more potently relative to OAT1 (human OAT3 [2]) | Cu,max/IC50 OAT3 (human OAT3 [2])
CC(C)CN(C[C@@H](O)[C@H](Cc1ccccc1)NC(=O)O[C@H]1CO[C@H]2OCC[C@H]21)S(=O)(=O)c1ccc(N)cc1 [Darunavir] | > 100 µM | 37.9 ± 9.5 µM | 43.8 ± 14.4 µM | 30.7 ± 20.2 µM | 95 µM | – | –
CCC(CC)COC(=O)[C@H](C)N[P@](=O)(OC[C@H]1O[C@@](C#N)(c2ccc3c(N)ncnn23)[C@H](O)[C@@H]1O)Oc1ccccc1 [Remdesivir] | 25 ± 6 µM | 14 ± 1.7 µM | 0.4 ± 0.1 µM | 15.2 ± 9.7 µM | > 100 µM | – | –
N#CC[C@H](C1CCCC1)n1cc(-c2ncnc3[nH]ccc23)cn1 [Ruxolitinib] | > 100 µM | 6.1 ± 0.6 µM | 0.7 ± 0.01 µM | 3.7 ± 2.3 µM | > 100 µM | ≥ 10 fold | 0.005
CCCc1nn(C)c2c(=O)[nH]c(-c3cc(S(=O)(=O)N4CCN(C)CC4)ccc3OCC)nc12 [Sildenafil] | 3.1 ± 2.5 µM | 20.5 ± 3.1 µM | 2.4 ± 0.1 µM | 14.4 ± 1.3 µM | > 100 µM | ≥ 10 fold | 0.002
CCOC(=O)c1c(CSc2ccccc2)n(C)c2cc(Br)c(O)c(CN(C)C)c12 [Umifenovir (Arbidol), Umifenovir] | > 100 µM | 58.6 ± 21.9 µM | 0.7 ± 0.2 µM | 4.1 ± 1.6 µM | > 100 µM | – | 0.002
